Measured values taken from patent US6692927B2, “Bax degradation involvement in tumor survival and progression” (University of South Florida, priority 2000, dated 2004).
Where a SMILES comes first, the peptide text is derived from it. [ ]: non-standard residue; d: D form. The star is where a group is joined. Nva = CCC[C@H](N)C(=O)O; Cbz = O=C(OCc1ccccc1)*

Assays:
[1] = tested on: Jurkat T cells; test: Western blot and Bax IP/ubiquitin blot in Jurkat T cells; type: cell-based, human
Description: FIGS. 8A-8D show proteasome inhibition accumulates Bax to mitochondria/cytoplasm and increases interaction between Bax and Bcl-2 proteins. Jurkat cells (0 h; FIG. 8A and FIG. 8B) or Jurkat cells overexpressing Bcl-2 (0 h; FIG. 8C and FIG. 8D) were treated by either 10 μM lactacystin (FIGS. 8A-8C), 50 μM LLnV (FIG. 8D), or 50 μM LLM (FIG. 8A and FIG. 8B) for the indicated hours. (FIG. 8A and FIG. 8B) Western blotting with antibodies to PARP and Bax were performed as described in FIG. 7. (FIG. 8C) Immunohistochemistry (see MATERIALS AND METHODS). Localization of Bax protein (green) and nuclei (red) are shown. (FIG. 8D) Bax immunoprecipitates, prepared by an agarose-conjugated N-20 Bax antibody, were immunoblotted first with the 6A7 Bax antibody (upper) and then reblotted with a Bcl-2 antibody (lower).
FIGS. 9A-9F show Bax degradation depends on ubiquitination, proteasome and ATP. (FIG. 9A) Jurkat cells (0 h) were treated with either 50 μM LLnV or 10 μM lactacystin, followed by preparation of Bax immunoprecipitates (with clone 6A7), which were immunoblotted with an ubiquitin antibody. Positions of putative ubiquitinated Bax proteins (p47, p55) are indicated at left. The nature of the ˜30 kDa and ˜84 kDa remains unclear. (FIG. 9B) The [^35S]-labeled Bax (upper) or Bcl-2 (lower) protein (1 μl) were incubated at 37° C. for 2 h with either buffer Z only (lane 1) or […] protein extract of MCF-7 cells grown exponentially (lane 2) or pretreated for 8 h with […] LLnV (lane 3). (FIG. 9C) The [^35S]-labeled Bax protein (1 μl) was incubated with either buffer Z only (lane 1) or 100 μg MCF-7 cell lysate at 37° C. for 4 h, in the presence of an indicated inhibitor (100 mM; lanes 3-8) or an equal volume of DMSO (lane 2) in buffer Z. A weak band of ˜16 kDa (indicated by an arrow) is probably an intermediate product of proteasome-mediated Bax degradation. (FIG. 9D) The proteasome in MCF-7 whole cell lysate (W lys, lane 1) was precipitated by using either ultraspin (ULS) or a proteasome subunit a6 antibody (IP). Both supernatant (lanes 2, 4) and pellet (lanes 3, 5) fractions were examined by Western blot assay using antibody to the proteasome a6 subunit (MW 33 kDa). (FIG. 9E) Bax degradation assay was performed as in FIG. 9B, with addition of buffer Z (lane 1) or 100 μg protein from MCF-7 whole cell lysate (lane 2), ultraspun supernatant (lane 3) or plus the pellet (lane 4), immunodepleted supernatant (lane 5) or plus a purified 20S proteasome ([…]; lane 6), or the purified proteasome alone (2 μg; lane 7). (FIG. 9F) Bax degradation assay was performed as in FIG. 9B, in the absence (lane 3) or presence of 10 mM ATP (lane 2) or 10 mM ATP-y-S (lane 4). […]

[2] = tested on: human breast cancer (SK-BR-3, MDA-MB-468) cells; test: cellular detachment of breast cancer cells; type: cell-based; settings: breast cancer versus normal (MCF-10A) cells
Description: Proteasome inhibitors selectively induce apoptosis in human breast cancer, but not normal, cells. […] Cells of both human breast cancer lines became detached in a lactacystin-concentration-dependent manner (FIG. 3). No detachment was induced in the normal human breast cells MCF-10A after treatment with lactacystin for 48 hours (FIG. 3) or even 72 hours. Proteasome inhibition-induced detachment of breast cancer cells is due to apoptosis (An et al., in press).

CCC[C@@H](C=O)NC(=O)[C@H](CC(C)C)NC(=O)[C@H](CC(C)C)NC(=O)OCc1ccccc1 [LLnV] (Cbz-Leu-Leu-[Nva]-aldehyde)
p55 and p47 levels (putative ubiquitinated Bax) ([1]; 50 μM LLnV, 8 hours): significantly increased | cellular detachment [2]: selectively induced cellular detachment

CC(=O)N[C@@H](CSC(=O)[C@]1([C@@H](O)C(C)C)NC(=O)[C@H](C)[C@@H]1O)C(=O)O [lactacystin]
p55 and p47 levels (putative ubiquitinated Bax) ([1]; 10 μM lactacystin, 4 hours): significantly increased | Bax accumulation and PARP cleavage ([1]; 10 microM): induced Bax accumulation and PARP cleavage | cellular detachment [2]: selectively induced cellular detachment
